Data: patent US20230192878A1, “METHODS, THERAPIES AND USES FOR TREATING CANCER” (PFIZER INC., priority 2020, published 2023)

Columns and labels:
H929 = assay: Cell surface BCMA expression after GSI, concentration series; type: cell-based; settings: 24 hours
Procedure: (§1) Multiple myeloma cells (MM.1S, OPM2, H929, Molp8, RPMI8226) were seeded in a 96-well U bottom plate at 40,000 cells/well. Cells were incubated for 24 hours in the presence of GSI diluted in RPMI (0.1% DMSO). The following concentrations of the GSI were tested: 1000 nM, 500 nM, 100 nM, 50 nM, 25 nM, 10 nM, 5 nM, 2.5 nM, 1 nM, 0.1 nM, 0.01 nM. 24 hours later cells were collected and washed with PBS+2% FBS, followed by staining with ZombieNIR Viability Dye (Biolegend) at 1 in 500 dilution in PBS at room temperature for 20 minutes. Next, cells were washed with PBS+2% FBS and stained with anti-BCMA PE-labelled antibody (Biolegend) diluted in PBS+2% FBS for 30 minutes at 4° C. Cells were acquired on BD Flow Cytometer and analyzed using FlowJo flow cytometry analysis software. Dead cells were removed from analysis by gating on ZombieNIR negative population. BCMA mean fluorescence intensity (MFI) was plotted against GSI concentration to establish EC50.

MM.1S = assay: as above; type: cell-based; settings: 24 hours
Procedure: as §1

Molp8 [1] = assay: as above; type: cell-based; settings: 24 hours
Procedure: as §1

OPM2 = assay: as above; type: cell-based; settings: 24 hours
Procedure: as §1

RPMI8226 = assay: as above; type: cell-based; settings: 24 hours
Procedure: as §1

Molp8 [2] = assay: Soluble BCMA (sBCMA) shedding after GSI (ELISA); type: cell-based, Human; parameters: unit not given here; settings: Table 6 (sBCMA in supernatant, ELISA), 24 hours
CD8+ T cells = assay: PD-1 induction on CD8+ T cells co-cultured with MM.1S-luc cells; type: cell-based, human; settings: 1 nM BCMAxCD3 bispecific, ± SD
Procedure: CD3+ T cells from PBMCs (Stem Cell Technologies) were negatively selected using EasySep Human T cell enrichment kit (Stem Cell Technologies). 10,000 target Multiple Myeloma MM.1S cells expressing luciferase (MM.1S-luc) were seeded with 50,000 CD3^+ pan T cells in a clear 96-well V-bottom plate. Cells were treated with 1 nM BCMAxCD3 bispecific antibody and PD-1 expression was analyzed at 3, 24, 48 and 72 hours after addition of the BCMAxCD3 bispecific. At the specified time points, cells were collected from the wells, washed with PBS+2% FBS, and stained with ZombieNIR Viability dye (Biolegend) in PBS for 20 minutes at room temperature, followed by staining with antibodies against human CD8 and PD-1 (Biolegend). Samples were analyzed using FlowJo flow cytometry analysis software. Dead cells were removed from analysis by gating on ZombieNIR negative population. Samples were further gated on CD8^+ positive population. Percentage of PD-1+ cells is expressed as PD-1 positive cells within the CD8+ population.

[3] = Preliminary pharmacokinetic (PK) analysis, Phase 1 study; type: in vivo, human
Procedure: Therefore, a fixed dose is suitable for the dosing of PF-06863135. Based on the encouraging efficacy data and safety data obtained from Part I of Study, a promising RP2D for Part 2A of the study could be a fixed dose equivalent of 1000 μg/kg (i.e., 76 mg) of PF-06863135 either in Q1W or Q2W. A fixed dose equivalent of 600 μg/kg (ie, 44 mg) will likely be used as a priming dose on cycle zero day 1. The initial dose of 44 mg serves as a priming dose and is designed to mitigate the CRS symptoms of the later 76 mg dose. […] Subsequently, the 44 mg (priming) and 76 mg (maintenance) were selected as the single agent RP2D dose. Patient will be administered a single priming dose of 44 mg SC of PF06863135, followed by maintenance dosing of 76 mg Q1W SC or 76 mg Q2W starting 7 days after the single priming dose.

Compound: CCC[C@H](N[C@H]1CCc2cc(F)cc(F)c2C1)C(=O)Nc1cn(C(C)(C)CNCC(C)(C)C)cn1 [GSI, nirogacestat]
- BCMA (-PE) MFI (H929; H929, GSI 0.01 nM): 4824.5
- BCMA (-PE) MFI (H929; H929, GSI 0.1 nM): 5305.5
- BCMA (-PE) MFI (H929; H929, GSI 1 nM): 8615.5
- BCMA (-PE) MFI (H929; H929, GSI 2.5 nM): 10344.5
- BCMA (-PE) MFI (H929; H929, GSI 5 nM): 13226
- BCMA (-PE) MFI (H929; H929, GSI 10 nM): 15670
- BCMA (-PE) MFI (H929; H929, GSI 25 nM): 18445.5
- BCMA (-PE) MFI (H929; H929, GSI 50 nM): 17424.5
- BCMA (-PE) MFI (H929; H929, GSI 100 nM): 19455.5
- BCMA (-PE) MFI (H929; H929, GSI 500 nM): 20285.5
- BCMA (-PE) MFI (H929; H929, GSI 1000 nM): 21156
- BCMA (-PE) MFI (MM.1S; GSI 0.01 nM): 15589.5
- BCMA (-PE) MFI (MM.1S; GSI 0.1 nM): 15775.5
- BCMA (-PE) MFI (MM.1S; GSI 1 nM): 14396
- BCMA (-PE) MFI (MM.1S; GSI 2.5 nM): 21412.5
- BCMA (-PE) MFI (MM.1S; GSI 5 nM): 28832
- BCMA (-PE) MFI (MM.1S; GSI 10 nM): 31248
- BCMA (-PE) MFI (MM.1S; GSI 25 nM): 37026.5
- BCMA (-PE) MFI (MM.1S; GSI 50 nM): 38111
- BCMA (-PE) MFI (MM.1S; GSI 100 nM): 37582.5
- BCMA (-PE) MFI (MM.1S; GSI 500 nM): 35780
- BCMA (-PE) MFI (MM.1S; GSI 1000 nM): 35780
- BCMA (-PE) MFI (Molp8 [1]; Molp8, GSI 0.01 nM): 1191.5
- BCMA (-PE) MFI (Molp8 [1]; Molp8, GSI 0.1 nM): 1242.5
- BCMA (-PE) MFI (Molp8 [1]; Molp8, GSI 1 nM): 1288.5
- BCMA (-PE) MFI (Molp8 [1]; Molp8, GSI 2.5 nM): 1401
- BCMA (-PE) MFI (Molp8 [1]; Molp8, GSI 5 nM): 1761.5
- BCMA (-PE) MFI (Molp8 [1]; Molp8, GSI 10 nM): 2183.5
- BCMA (-PE) MFI (Molp8 [1]; Molp8, GSI 25 nM): 3691
- BCMA (-PE) MFI (Molp8 [1]; Molp8, GSI 50 nM): 5120
- BCMA (-PE) MFI (Molp8 [1]; Molp8, GSI 100 nM): 5412
- BCMA (-PE) MFI (Molp8 [1]; Molp8, GSI 500 nM): 5640.5
- BCMA (-PE) MFI (Molp8 [1]; Molp8, GSI 1000 nM): 6401
- BCMA (-PE) MFI (OPM2; OPM2, GSI 0.01 nM): 2093.5
- BCMA (-PE) MFI (OPM2; OPM2, GSI 0.1 nM): 2079.5
- BCMA (-PE) MFI (OPM2; OPM2, GSI 1 nM): 2185
- BCMA (-PE) MFI (OPM2; OPM2, GSI 2.5 nM): 2358.5
- BCMA (-PE) MFI (OPM2; OPM2, GSI 5 nM): 2788.5
- BCMA (-PE) MFI (OPM2; OPM2, GSI 10 nM): 3190.5
- BCMA (-PE) MFI (OPM2; OPM2, GSI 25 nM): 6575.5
- BCMA (-PE) MFI (OPM2; OPM2, GSI 50 nM): 10863
- BCMA (-PE) MFI (OPM2; OPM2, GSI 100 nM): 14364
- BCMA (-PE) MFI (OPM2; OPM2, GSI 500 nM): 15910.5
- BCMA (-PE) MFI (OPM2; OPM2, GSI 1000 nM): 14747.5
- BCMA (-PE) MFI (RPMI8226; RPMI8226, GSI 0.01 nM): 10028
- BCMA (-PE) MFI (RPMI8226; RPMI8226, GSI 0.1 nM): 10099
- BCMA (-PE) MFI (RPMI8226; RPMI8226, GSI 1 nM): 10483.5
- BCMA (-PE) MFI (RPMI8226; RPMI8226, GSI 2.5 nM): 10226.5
- BCMA (-PE) MFI (RPMI8226; RPMI8226, GSI 5 nM): 10589.5
- BCMA (-PE) MFI (RPMI8226; RPMI8226, GSI 10 nM): 11181.5
- BCMA (-PE) MFI (RPMI8226; RPMI8226, GSI 25 nM): 12617
- BCMA (-PE) MFI (RPMI8226; RPMI8226, GSI 50 nM): 13190.5
- BCMA (-PE) MFI (RPMI8226; RPMI8226, GSI 100 nM): 13416
- BCMA (-PE) MFI (RPMI8226; RPMI8226, GSI 500 nM): 13464.5
- BCMA (-PE) MFI (RPMI8226; RPMI8226, GSI 1000 nM): 14362
- BCMA (-PE) MFI (Molp8 [2]; Molp8, GSI 0.01 nM): 6887.3
- BCMA (-PE) MFI (Molp8 [2]; Molp8, GSI 0.1 nM): 6363.4
- BCMA (-PE) MFI (Molp8 [2]; Molp8, GSI 1 nM): 6072.9
- BCMA (-PE) MFI (Molp8 [2]; Molp8, GSI 2.5 nM): 6765.5
- BCMA (-PE) MFI (Molp8 [2]; Molp8, GSI 5 nM): 5989.3
- BCMA (-PE) MFI (Molp8 [2]; Molp8, GSI 10 nM): 5958.9
- BCMA (-PE) MFI (Molp8 [2]; Molp8, GSI 25 nM): 3021.7
- BCMA (-PE) MFI (Molp8 [2]; Molp8, GSI 50 nM): 1044.3
- BCMA (-PE) MFI (Molp8 [2]; Molp8, GSI 100 nM): 431.8
- BCMA (-PE) MFI (Molp8 [2]; Molp8, GSI 500 nM): 87.3
- BCMA (-PE) MFI (Molp8 [2]; Molp8, GSI 1000 nM): 51.6

Compound: PF-06863135: heterodimeric humanized full-length bispecific antibody with one BCMA binding arm and one CD3 binding arm
- % PD-1 (of CD8+ T cells) (CD8+ T cells; 3 hours): 12.8 ± 0.6%
- % PD-1 (of CD8+ T cells) (CD8+ T cells; 24 hours): 18.9 ± 1.2%
- % PD-1 (of CD8+ T cells) (CD8+ T cells; 48 hours): 69.9 ± 3.1%
- % PD-1 (of CD8+ T cells) (CD8+ T cells; 72 hours): 69.9 ± 3.1%
- Effect of body weight on PF-06863135 exposure [3]: not a clinically relevant factor
